Test results published in PubChem BioAssay (NCI).
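How tested: cells in 96-well plates exposed to compound for 48 hours at five concentrations. TGI is the concentration that stops growth completely.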

Columns and labels:
Assay in all cases: growth of human tumour cells (NCI), 48 h
[1] = tested on: 786-0 renal
[2] = tested on: EKVX NSCLC
[3] = tested on: HCC-2998 colon
[4] = tested on: IGROV1 ovarian
[5] = tested on: MALME-3M melanoma
[6] = tested on: SF-268 CNS
[7] = tested on: SK-OV-3 ovarian
[8] = tested on: SN12C renal
[9] = tested on: SNB-19 CNS
[10] = tested on: NCI/ADR-RES ovarian

Row | SMILES | TGI [1] | TGI [2] | TGI [3] | TGI [4] | TGI [5] | TGI [6] | TGI [7] | TGI [8] | TGI [9] | TGI [10]
1 | COc1cc(/C=C2\[C@H]3c4c(c(OC)c(C)c(OC)c4OC)C[C@@H](C(=O)N2Cc2ccccc2)N3C(=O)OC(C)C)c(OC)c(C)c1OC | > 100 µM | > 100 µM | > 100 µM | > 100 µM | > 100 µM | > 100 µM | > 100 µM | > 100 µM | – | –
2 | COc1cc2nc(Sc3c([N+](=O)[O-])ncn3C)[nH]c2cc1OC | > 100 µM | 80.7 µM | > 100 µM | > 100 µM | > 100 µM | 69.9 µM | > 100 µM | 41.5 µM | > 100 µM | –
3 | COC(=O)C(C(=O)C(=O)Nc1ccccc1C(C)=O)c1nc2ccc(Cl)cc2[nH]c1=O (centres undefined) | > 100 µM | > 100 µM | > 100 µM | > 100 µM | > 100 µM | > 100 µM | > 100 µM | > 100 µM | > 100 µM | –
4 | COC(=O)C1(C(=O)OC)CC2c3c(c4ccccc4n3C)CC(C1=O)N2Cc1ccccc1 (centres undefined) | > 100 µM | > 100 µM | > 100 µM | > 100 µM | > 100 µM | > 100 µM | > 100 µM | > 100 µM | > 100 µM | –
5 | Cc1ccccc1NC(=O)C(=O)C(c1cnc2ccc([N+](=O)[O-])cc2n1)[N+](=O)[O-] (centres undefined) | > 100 µM | > 100 µM | > 100 µM | > 100 µM | > 100 µM | > 100 µM | > 100 µM | > 100 µM | > 100 µM | –
6 | Nc1ncnc(NC2C=C(CO)C(O)C2O)c1[N+](=O)[O-] (centres undefined) | > 100 µM | > 100 µM | > 100 µM | > 100 µM | – | > 100 µM | > 100 µM | > 100 µM | > 100 µM | –
7 | O=C(O)c1ccc(O)c(N=Nc2cc(S(=O)(=O)O)c3ccccc3c2O)c1 | > 100 µM | > 100 µM | > 100 µM | > 100 µM | > 100 µM | > 10 µM | > 10 µM | > 100 µM | > 100 µM | –
8 | COc1ccc(NC(=O)C(=O)C2CNC(=O)NC2=O)c(OC)c1 (centres undefined) | > 100 µM | > 100 µM | > 100 µM | > 100 µM | > 100 µM | > 100 µM | > 100 µM | > 100 µM | > 100 µM | –
9 | CC(C)NCC(O)COC(=O)c1cccs1 (centres undefined) | > 100 µM | > 100 µM | > 100 µM | > 100 µM | > 100 µM | > 100 µM | > 100 µM | > 100 µM | > 100 µM | –
10 | N=C1N(c2ccccc2)C(=O)C23CCCC2C13N1CCOCC1 (centres undefined) | > 100 µM | > 100 µM | > 100 µM | > 100 µM | > 100 µM | > 100 µM | > 100 µM | > 100 µM | > 100 µM | –
11 | CC1(C)OC(C(N)=O)=C(C(N)=O)O1 | > 100 µM | > 100 µM | > 100 µM | > 100 µM | > 100 µM | > 100 µM | > 100 µM | > 100 µM | > 100 µM | –
12 | COC(=O)C(=O)C(C(=O)C(=O)Nc1ccc(Cl)cc1C)c1nc2ccc(C(=O)c3ccccc3)cc2[nH]c1=O (centres undefined) | > 100 µM | > 100 µM | > 100 µM | > 100 µM | > 100 µM | > 100 µM | > 100 µM | > 100 µM | > 100 µM | –
13 | Cc1ccc([N+](=O)[O-])cc1NC(=O)C(=O)Cc1occc(=O)c1O | > 100 µM | > 100 µM | > 100 µM | > 100 µM | – | > 100 µM | > 100 µM | > 100 µM | > 100 µM | –
14 | CCC(C)OC(=O)C1C2CCC(O2)C1C(=O)O (centres undefined) | > 62.7 µM | > 100 µM | > 100 µM | > 100 µM | > 100 µM | > 80.8 µM | > 100 µM | > 100 µM | > 100 µM | –
15 | C#CCOCn1cnc2c(=S)nc[nH]c21 | > 100 µM | > 100 µM | > 100 µM | > 100 µM | > 100 µM | > 100 µM | > 100 µM | > 100 µM | > 100 µM | –
16 | Oc1ccc(CNCc2ccccc2)c2cccnc12 | > 24.7 µM | > 100 µM | – | > 100 µM | – | > 65.6 µM | > 76.9 µM | – | > 100 µM | 16.9 µM
17 | O=C1C(=O)N(C(=O)c2ccc(Cl)c(Cl)c2)c2ccc(Cl)cc21 | > 100 µM | > 100 µM | – | > 100 µM | – | > 100 µM | > 100 µM | – | > 100 µM | –
18 | C=C[C@]1(C)CCC2=C(CCC3C2(C)CCC[C@]3(C)CO)C1 (some centres undefined) | > 100 µM | > 100 µM | > 100 µM | > 100 µM | > 100 µM | > 100 µM | > 100 µM | 43.6 µM | > 100 µM | –
